Patent US9868784B2, “Antibodies against the S100P protein for the treatment and diagnosis of cancer” (LYKERA BIOMED SA, priority 2011, dated 2018)
Several values for one entry are separate records, joined by “and”; a condition that tells them apart may be missing. Equal entries are not always repeated.

How the values were obtained:
[1] = tested on: HT1080 human fibrosarcoma cell line; assay: HT1080 cell survival by MTT method
Procedure: Briefly, HT1080 cells (1×10^4 cells/well) were plated onto 96-well cell culture plates in 50 μl of DMEM medium. Twenty-for hours later, 50 μl of medium with doxorubicin (240 nM or 1 μM) alone or in combination with either S100P or S100P combined with the antibodies (see FIG. 6) were added to each well and were cultured for 72 hours. Then 10 μl of a MTT solution (5 mg/ml PBS) was added to each well and after 4 hours cells were lysed, formazan product was solubilised with 100 μl of extraction buffer (15% SDS in 50% N,N-dimethylformamide pH 4.7) and colorimetric result was measured at 570 nm using a multi-well scanning spectrophotometer 5 hours after solubilization.

[2] = tested on: human pancreatic BxPC3 tumors; assay: Orthotopic BxPC3-luc pancreatic tumor model, tumor progression and metastases (TMPN score, bioluminescence); format: in vivo, nude mice; set-up: key to Nodes score / Tumor score / Organ Metastases, Liver score / Organ Metastases, Lung score / Peritoneal Metastases, Diaphragm score / Peritoneal Metastases, Kidney score / Peritoneal Metastases, Adrenals score / Peritoneal Metastases, Intestine score / Peritoneal Metastases, Peritoneum score: TMPN category scores per Table 2 (modified Hennig 2005); key to Total Score: product of T, M, P and N scores per animal; conditions: individual animal, end of experiment
Procedure: The antitumorigenic and antimetastatic capability of the monoclonal antibodies 3F8 and 2H8 against S100P was assessed in an orthotopic tumor model using the human adenopancreatic BxPC3 tumor cell line stably expressing a lentiviral luciferase reporter gene.
BxPC3-luc cell line in exponential growth were harvested with trypsin-EDTA (0.05%/0.02%) (Invitrogen), washed, and examined for viability by trypan blue dye exclusion. Viability was greater than 95%. For primary tumor growth, cells (5×105 in 0.1 mL DMEM high glucose) were injected into the pancreas of 5 nude mice.
Four weeks after cell injection, when tumors became established (300-350 mm3), two animals were killed, tumors were obtained, sliced in 5 mm3 pieces approximately and implanted in 15 new mice. Mice were divided into 3 groups of five animals each one.
Tumor growth and metastasis were followed by bioluminescent imaging, palpation of animals and the examination of endpoint criteria of treated animals (occurrence of ascitic fluid and body weight loss).
Mice were treated either with cromolyn (reference compound that is known to bind to S100P and block its extracellular activity, Arumugam T. et al. 2006. J. Natl. Cancer Inst. 98(24):1806-18), daily (5 mg/Kg body weight by ip injection) or with our antibodies against S100P (3F8 and 2H8), three times per week at 25 mg/Kg by ip injection, starting the treatment 24 hours after tumor implantation. At the end of the experiment (treatment of 30 days) animals were killed, pancreatic tumors were surgically removed, weighted and an staging and scoring system of peritoneal tumors, pancreatic tumors, lymph node metastases, organ metastases, and ascites was developed and recorded according to our TMPN scoring system (Table 2) modified from Hennig R. et al. 2005. Neoplasia, 7(4):417-425 to evaluate tumor progression. Scores from each category were multiplied with each other because patterns in medicine follow multiplicative, rather than additive, rules.
Scores for the primary tumor (T), organ metastases (M), peritoneal metastases (P), and lymph node metastases (N) were multiplied to calculate the total tumor score for each animal. Score P4 value is the sum of the corresponding P0, P1, P2, P3 (P0/1/2/3) plus an additional value of 3 for metastasis presence in the diaphragm, 3 for kidney, 3 for intestine and 3 for adrenal glands.
Bioluminescence imaging was conducted using a cryogenically cooled IVIS 100 imaging system coupled to a data acquisition computer running Living Image Software (Xenogen Corp). Before imaging, mice were placed in an acrylic chamber anesthetized with 2.5% isofluorane-air mixture, and injected intraperitoneally with 15 mg/mL of luciferin potassium salt in PBS at a dose of 150 mg/Kg body weight. At the end of experiment, after the primary tumors were removed, cancer cell dissemination and metastasis were visualized using IVIS imaging, and metastatic colonies were counted and measured (photons/second).
Comparisons between groups were made using the Kruskall-Wallis ANOVA on ranks as a nonparametric test. Differences for which P value was less than 0.05 were considered statistically significant.

[3] = tested on: BxPC3 pancreatic adenocarcinoma tumor cells; assay: Proliferation of BxPC3 tumor cells induced by S100P; format: cell-based, human; conditions: S100P 100 nM, 48 hours
Procedure: The proliferation studies on the BxPC3 line were analyzed using the Cell Proliferation ELISA Biotrak™ System kit (GE Healthcare) following the manufacturer's instructions with some modifications. Three thousand cells were seeded in 50 μl of RPMI 1640 culture medium supplemented with 3% FCS in each well. The recombinant S100P protein (100 nM) alone or in combination with the antibodies was added to the cells in the same seeding medium to test the proliferative or inhibitory capacity thereof, respectively. To test the inhibitory effect of the 5D7, 4B12, 3E3, 7F1, 9F3, 6F1, 1A5, 3F8 and 2H8 monoclonal antibodies, a concentration of 500 nM of each antibody was incubated for 2 hours at 37° C. with the recombinant S100P protein before being added to the culture. After 48 hours at 37° C., the proliferation was determined. The two-tailed Mann-Whitney nonparametric test was used to compare the groups. A p value <0.05 was taken for the values to be statistically significant.

COc1cccc2c1C(=O)c1c(O)c3c(c(O)c1C2=O)C[C@@](O)(C(=O)CO)C[C@@H]3O[C@H]1C[C@H](N)[C@H](O)[C@H](C)O1 [Doxorubicin, doxorubicin]
IC50 ([1]; Homo sapiens, HT-1080, 72 h): 240 nM | EC50 ([1]; Homo sapiens, HT-1080, read-out: Toxicity EC50): 240 nM

O=C(O)c1cc(=O)c2c(OCC(O)COc3cccc4oc(C(=O)O)cc(=O)c34)cccc2o1 [Cromolyn, cromolyn]
Total Score ([2]; T x M x P x N scores multiplied): 2600 and 1000 (2×) and 1300 and 1750 (2×) | Tumor score ([2]; TMPN score (Table 2), 30 days treatment, antibodies 25 mg/Kg ip three times per week, cromolyn 5 mg/Kg ip daily): 4 (4×) and 5 (2×) | Nodes score ([2]; TMPN score): 5 | Organ Metastases, Liver score ([2]; TMPN score): 5 | Organ Metastases, Lung score ([2]; TMPN score): 5 and 0 (5×) | Peritoneal Metastases, Adrenals score ([2]; TMPN score): 3 and 0 (5×) | Peritoneal Metastases, Diaphragm score ([2]; TMPN score): 0 and 3 (5×) | Peritoneal Metastases, Intestine score ([2]; TMPN score): 3 | Peritoneal Metastases, Kidney score ([2]; TMPN score): 3 (4×) and 0 (2×) | Peritoneal Metastases, Peritoneum score ([2]; TMPN score): 4 (4×) and 5 (2×)

B1: S100P: human recombinant S100P protein (SEQ ID NO: 2) expressed in E. coli, used as stimulus (protein)
chain: GSHMTELETAMGMIIDVFSRYSGSEGSTQTLTKGELKVLMEKELPGFLQSGKDKDAVDKLLKDLDANGDAQVDFSEFIVFVAAITSACHKYFEKAGLK
modifications: Human
proliferation increase compared to cells not treated with S100P [3]: ~80% | increase of growing respect to the non treated HT1080 cells ([1]; S100P 500 nM, doxorubicin 240 nM, 72 h): approximately 40%
